Consider three compounds from publication PMC4685510, “A Cell Biologist’s Field Guide to Aurora Kinase Inhibitors” (Frontiers in Oncology, 2015).

What all share (experiment): biochemical
What all share (format): biochemical

For assay [1], the target named is 363 human kinases (including Aurora A/B/C) (Homo sapiens, UniProt O75914). Conditions: PAK3; for remaining activity at 0.5 µM / remaining activity at 0.1 µM: read-out: % Enzyme Activity (relative to DMSO controls); for remaining activity at 0.1 µM: 100 nM.
From the text: (§1) However, the Aurora A/B selectivity ratios derived from our in vitro and in vivo data can be compared to prioritize inhibitors.
The target of assay [2] is 363 human kinases (including Aurora A/B/C) (Homo sapiens, UniProt P23458). The following applies: JAK1; for remaining activity at 0.5 µM / remaining activity at 0.1 µM: read-out: % Enzyme Activity (relative to DMSO controls); for remaining activity at 0.1 µM: 100 nM.
From the text: as §1
Assay [3] deals with 363 human kinases (including Aurora A/B/C) (Homo sapiens, UniProt P28482). Conditions: ERK2/MAPK1, [ATP] 50 µM; for remaining activity at 0.5 µM / remaining activity at 0.1 µM: read-out: % Enzyme Activity (relative to DMSO controls); for remaining activity at 0.1 µM: 100 nM.
From the text: as §1
The target in assay [4] is T1, 363 human kinases (including Aurora A/B/C) (Homo sapiens, UniProt P36896).
T1 sequence (P36896 24-505): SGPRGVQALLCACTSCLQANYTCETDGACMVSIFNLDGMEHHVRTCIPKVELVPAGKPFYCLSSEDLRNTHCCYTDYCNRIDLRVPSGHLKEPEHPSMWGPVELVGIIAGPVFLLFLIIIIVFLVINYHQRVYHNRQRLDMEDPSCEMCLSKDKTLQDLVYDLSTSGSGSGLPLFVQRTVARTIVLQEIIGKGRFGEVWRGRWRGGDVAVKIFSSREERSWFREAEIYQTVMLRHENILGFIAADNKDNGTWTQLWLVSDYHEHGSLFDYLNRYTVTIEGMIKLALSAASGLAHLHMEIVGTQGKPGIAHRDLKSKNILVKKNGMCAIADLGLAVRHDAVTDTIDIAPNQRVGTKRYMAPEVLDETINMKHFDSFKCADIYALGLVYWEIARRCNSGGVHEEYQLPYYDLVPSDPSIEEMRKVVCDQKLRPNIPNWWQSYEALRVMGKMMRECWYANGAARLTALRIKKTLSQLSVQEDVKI
The following applies: ALK4/ACVR1B, [ATP] 50 µM; for remaining activity at 0.5 µM / remaining activity at 0.1 µM: read-out: % Enzyme Activity (relative to DMSO controls); for remaining activity at 0.1 µM: 100 nM.
From the text: as §1

The target in assay [5] is 363 human kinases (including Aurora A/B/C) (Homo sapiens, UniProt Q15349). The following applies: RSK3; for remaining activity at 0.5 µM / remaining activity at 0.1 µM: read-out: % Enzyme Activity (relative to DMSO controls); for remaining activity at 0.1 µM: 100 nM.
From the text: as §1
Assay [6] deals with 363 human kinases (including Aurora A/B/C) (Homo sapiens, UniProt Q86Y07). Conditions: VRK2; for remaining activity at 0.5 µM / remaining activity at 0.1 µM: read-out: % Enzyme Activity (relative to DMSO controls); for remaining activity at 0.1 µM: 100 nM.
From the text: as §1
In assay [7] the target is T2, 363 human kinases (including Aurora A/B/C) (Homo sapiens, UniProt Q86YV6).
T2 sequence (Q86YV6 1-388): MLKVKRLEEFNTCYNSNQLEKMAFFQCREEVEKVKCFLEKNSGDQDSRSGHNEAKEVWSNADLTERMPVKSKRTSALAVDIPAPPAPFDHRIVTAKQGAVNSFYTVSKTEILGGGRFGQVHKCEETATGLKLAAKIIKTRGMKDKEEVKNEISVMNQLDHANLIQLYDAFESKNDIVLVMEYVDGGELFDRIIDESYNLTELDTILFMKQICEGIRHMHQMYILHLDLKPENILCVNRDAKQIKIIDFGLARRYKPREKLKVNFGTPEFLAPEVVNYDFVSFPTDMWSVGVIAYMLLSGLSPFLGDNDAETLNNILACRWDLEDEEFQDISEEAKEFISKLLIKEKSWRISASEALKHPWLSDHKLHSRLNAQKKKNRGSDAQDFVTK
Conditions: MYLK4; for remaining activity at 0.5 µM / remaining activity at 0.1 µM: read-out: % Enzyme Activity (relative to DMSO controls); for remaining activity at 0.1 µM: 100 nM.
From the text: as §1

Assay [8] deals with T3, 363 human kinases (including Aurora A/B/C) (Homo sapiens, UniProt Q9BZL6).
T3 sequence (Q9BZL6 1-878): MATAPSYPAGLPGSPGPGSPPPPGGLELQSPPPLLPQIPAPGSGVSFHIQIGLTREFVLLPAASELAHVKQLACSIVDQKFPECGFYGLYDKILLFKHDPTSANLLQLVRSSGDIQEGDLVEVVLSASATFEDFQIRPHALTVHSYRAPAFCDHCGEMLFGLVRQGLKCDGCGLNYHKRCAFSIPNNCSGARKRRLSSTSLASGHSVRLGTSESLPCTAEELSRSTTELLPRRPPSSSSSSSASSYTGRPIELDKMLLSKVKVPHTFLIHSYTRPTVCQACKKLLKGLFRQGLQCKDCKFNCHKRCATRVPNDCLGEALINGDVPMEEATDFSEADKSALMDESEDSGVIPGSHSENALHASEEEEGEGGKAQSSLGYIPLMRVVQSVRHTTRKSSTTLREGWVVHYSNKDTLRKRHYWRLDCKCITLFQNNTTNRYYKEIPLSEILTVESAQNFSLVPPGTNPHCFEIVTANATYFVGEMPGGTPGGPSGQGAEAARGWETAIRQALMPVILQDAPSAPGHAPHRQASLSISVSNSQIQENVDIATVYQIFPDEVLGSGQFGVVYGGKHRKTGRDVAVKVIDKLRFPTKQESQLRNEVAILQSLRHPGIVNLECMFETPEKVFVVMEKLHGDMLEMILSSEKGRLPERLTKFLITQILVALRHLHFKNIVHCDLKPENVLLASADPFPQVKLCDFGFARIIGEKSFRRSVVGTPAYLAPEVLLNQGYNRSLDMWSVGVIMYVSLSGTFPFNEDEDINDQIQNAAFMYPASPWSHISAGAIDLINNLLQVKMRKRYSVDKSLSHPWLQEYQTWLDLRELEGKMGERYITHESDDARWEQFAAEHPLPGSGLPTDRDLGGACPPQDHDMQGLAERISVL
Conditions: PKD2/PRKD2; for remaining activity at 0.5 µM / remaining activity at 0.1 µM: read-out: % Enzyme Activity (relative to DMSO controls); for remaining activity at 0.1 µM: 100 nM.
From the text: as §1

Sequence of 363 human kinases (including Aurora A/B/C) (Homo sapiens, UniProt Q15349) (Q15349 whole entry): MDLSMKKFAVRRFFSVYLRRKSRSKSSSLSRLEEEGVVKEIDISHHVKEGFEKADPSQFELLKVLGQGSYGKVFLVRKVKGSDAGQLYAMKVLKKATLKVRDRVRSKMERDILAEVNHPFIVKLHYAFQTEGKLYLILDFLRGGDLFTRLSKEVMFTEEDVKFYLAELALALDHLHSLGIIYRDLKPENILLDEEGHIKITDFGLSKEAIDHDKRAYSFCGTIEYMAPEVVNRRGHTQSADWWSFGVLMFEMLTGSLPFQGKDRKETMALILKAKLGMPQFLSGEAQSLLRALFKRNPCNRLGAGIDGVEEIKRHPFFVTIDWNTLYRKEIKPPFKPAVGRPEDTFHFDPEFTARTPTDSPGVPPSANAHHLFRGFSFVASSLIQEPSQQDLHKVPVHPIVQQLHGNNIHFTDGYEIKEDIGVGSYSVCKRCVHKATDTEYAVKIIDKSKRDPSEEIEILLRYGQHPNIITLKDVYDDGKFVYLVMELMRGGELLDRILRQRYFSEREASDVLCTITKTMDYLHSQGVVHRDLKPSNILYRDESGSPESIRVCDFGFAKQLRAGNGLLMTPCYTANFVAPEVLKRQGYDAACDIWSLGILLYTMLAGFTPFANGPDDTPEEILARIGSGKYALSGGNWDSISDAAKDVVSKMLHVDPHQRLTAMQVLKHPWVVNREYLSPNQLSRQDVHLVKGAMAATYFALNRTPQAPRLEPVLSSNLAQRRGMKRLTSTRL
Sequence of 363 human kinases (including Aurora A/B/C) (Homo sapiens, UniProt Q86Y07) (Q86Y07 whole entry): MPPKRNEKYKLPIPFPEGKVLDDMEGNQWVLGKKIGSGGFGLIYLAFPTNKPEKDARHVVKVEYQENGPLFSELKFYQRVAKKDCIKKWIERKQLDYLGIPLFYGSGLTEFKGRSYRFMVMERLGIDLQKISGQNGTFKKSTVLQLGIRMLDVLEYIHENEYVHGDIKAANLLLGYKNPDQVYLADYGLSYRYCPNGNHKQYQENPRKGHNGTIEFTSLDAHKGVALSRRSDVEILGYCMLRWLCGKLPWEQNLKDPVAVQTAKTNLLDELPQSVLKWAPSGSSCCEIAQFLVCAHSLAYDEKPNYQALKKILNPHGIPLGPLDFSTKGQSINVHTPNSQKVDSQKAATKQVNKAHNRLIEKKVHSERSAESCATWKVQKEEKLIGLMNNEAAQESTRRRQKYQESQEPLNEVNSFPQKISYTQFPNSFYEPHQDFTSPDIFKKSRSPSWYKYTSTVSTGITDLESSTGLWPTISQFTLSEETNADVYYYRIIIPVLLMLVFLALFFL
Sequence of 363 human kinases (including Aurora A/B/C) (Homo sapiens, UniProt P28482) (P28482 whole entry): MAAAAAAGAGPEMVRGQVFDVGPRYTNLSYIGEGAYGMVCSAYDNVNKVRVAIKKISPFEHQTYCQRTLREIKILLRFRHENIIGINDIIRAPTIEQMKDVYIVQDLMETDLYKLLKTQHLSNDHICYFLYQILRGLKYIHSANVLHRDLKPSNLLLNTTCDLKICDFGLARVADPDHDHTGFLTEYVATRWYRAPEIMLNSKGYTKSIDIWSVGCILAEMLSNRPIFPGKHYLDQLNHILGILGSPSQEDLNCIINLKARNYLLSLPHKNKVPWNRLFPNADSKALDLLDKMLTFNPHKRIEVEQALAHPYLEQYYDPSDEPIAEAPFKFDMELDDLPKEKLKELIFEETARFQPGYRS
Sequence of 363 human kinases (including Aurora A/B/C) (Homo sapiens, UniProt O75914) (O75914 whole entry): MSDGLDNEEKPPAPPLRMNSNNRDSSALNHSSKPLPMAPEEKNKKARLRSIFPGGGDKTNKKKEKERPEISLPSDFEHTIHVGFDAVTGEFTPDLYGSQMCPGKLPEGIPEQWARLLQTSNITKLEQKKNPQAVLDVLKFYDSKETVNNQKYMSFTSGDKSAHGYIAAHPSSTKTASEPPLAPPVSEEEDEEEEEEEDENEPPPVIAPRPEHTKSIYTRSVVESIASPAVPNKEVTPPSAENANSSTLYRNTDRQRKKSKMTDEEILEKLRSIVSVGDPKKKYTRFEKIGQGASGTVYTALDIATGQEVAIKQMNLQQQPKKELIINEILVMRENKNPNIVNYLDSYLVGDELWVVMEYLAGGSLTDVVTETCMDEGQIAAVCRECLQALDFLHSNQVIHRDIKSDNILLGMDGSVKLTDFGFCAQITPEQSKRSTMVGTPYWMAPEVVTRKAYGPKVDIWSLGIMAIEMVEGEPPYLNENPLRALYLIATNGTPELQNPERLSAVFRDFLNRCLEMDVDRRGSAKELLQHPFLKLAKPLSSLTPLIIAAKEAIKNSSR
Sequence of 363 human kinases (including Aurora A/B/C) (Homo sapiens, UniProt P23458) (P23458 whole entry): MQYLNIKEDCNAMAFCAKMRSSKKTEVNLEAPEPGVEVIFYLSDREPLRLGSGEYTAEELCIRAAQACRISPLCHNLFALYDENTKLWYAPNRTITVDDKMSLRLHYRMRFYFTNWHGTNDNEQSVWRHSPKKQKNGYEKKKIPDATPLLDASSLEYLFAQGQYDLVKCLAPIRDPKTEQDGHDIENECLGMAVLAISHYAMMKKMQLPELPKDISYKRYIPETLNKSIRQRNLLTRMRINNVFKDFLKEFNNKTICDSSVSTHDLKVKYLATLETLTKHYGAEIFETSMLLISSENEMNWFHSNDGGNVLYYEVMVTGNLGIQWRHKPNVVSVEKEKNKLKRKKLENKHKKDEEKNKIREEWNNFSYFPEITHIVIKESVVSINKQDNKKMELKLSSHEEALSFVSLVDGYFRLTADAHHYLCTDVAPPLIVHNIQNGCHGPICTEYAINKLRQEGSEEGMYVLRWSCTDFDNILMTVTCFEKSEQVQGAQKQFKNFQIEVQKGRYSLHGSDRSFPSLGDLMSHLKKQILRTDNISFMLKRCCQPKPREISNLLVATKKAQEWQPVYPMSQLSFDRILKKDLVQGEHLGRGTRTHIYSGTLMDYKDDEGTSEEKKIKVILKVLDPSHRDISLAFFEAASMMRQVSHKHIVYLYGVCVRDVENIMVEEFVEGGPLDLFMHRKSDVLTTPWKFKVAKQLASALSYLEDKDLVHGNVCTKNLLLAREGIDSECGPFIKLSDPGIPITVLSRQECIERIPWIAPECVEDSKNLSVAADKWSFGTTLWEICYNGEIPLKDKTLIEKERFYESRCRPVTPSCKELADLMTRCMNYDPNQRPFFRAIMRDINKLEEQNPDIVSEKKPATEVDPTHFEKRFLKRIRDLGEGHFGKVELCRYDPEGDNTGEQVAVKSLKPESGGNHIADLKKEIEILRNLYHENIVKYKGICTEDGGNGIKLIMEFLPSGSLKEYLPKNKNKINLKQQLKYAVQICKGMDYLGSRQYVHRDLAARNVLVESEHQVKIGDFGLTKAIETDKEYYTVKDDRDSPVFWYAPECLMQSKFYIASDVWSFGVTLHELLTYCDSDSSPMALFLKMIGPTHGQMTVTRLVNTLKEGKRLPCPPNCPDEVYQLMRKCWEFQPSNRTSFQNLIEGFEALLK

Take `O=C(c1cccc(Cl)c1F)N1CCN(Cc2cccc(Nc3nccs3)n2)CC1` [MK-8745]: the “% Enzyme Activity (relative to DMSO controls)” value is 91.67% in assay [1] (500 nM); 103.50% in assay [2] (500 nM); 103.36% in assay [3] (500 nM); 133.43% in assay [4] (500 nM); 96.48% in assay [5] (500 nM); 103.85% in assay [6] (500 nM). The “% Enzyme Activity (relative to DMSO controls)” value is reported as 92.44% in assay [7] (500 nM) and 96.92% in assay [8] (500 nM). For the same compound, the remaining activity at 0.5 µM in assay [1] (500 nM) was determined as 94%; in assay [2] (500 nM) it was 104%; in assay [3] (500 nM), 104%; in assay [4] (500 nM), 137%; in assay [5] (500 nM), 99.9%; in assay [6] (500 nM), 107%. For the same compound, the values for the remaining activity at 0.5 µM in assay [7] (500 nM) and in assay [8] (500 nM) were 93% and 98.1%, respectively.
Consider `CCn1cc(-c2ccnc3[nH]c(-c4cccc(CN(C)C)c4)cc23)c(-c2ccc(NC(=O)N(C)C)cc2)n1` [GSK1070916], for which the remaining activity at 0.1 µM in assay [1] was determined as 92.5%; in assay [2], 95.8%; in assay [3] it was 101%; in assay [4], 102%; in assay [5] it was 95.2%; in assay [6], 106%. For the same compound, the remaining activity at 0.1 µM amounted to 94.3% in assay [7] and 93.3% in assay [8].
Regarding `O=C(O)[C@]1(Cc2cccc(Nc3nccs3)n2)CC[C@@H](Oc2cccc(Cl)c2F)CC1` [MK-5108], the remaining activity at 0.1 µM is 92.3% in assay [1]; 99.4% in assay [2]; 98.4% in assay [3]; 106% in assay [4]; 101% in assay [5]; 114% in assay [6]. Besides, the values for the remaining activity at 0.1 µM in assay [7] and in assay [8] were 93% and 98.5%, respectively. Further, the remaining activity at 0.5 µM in assay [1] (500 nM) was determined as 88.8%; in assay [2] (500 nM), 61.6%; in assay [3] (500 nM), 106%; in assay [4] (500 nM) it was 92.9%; in assay [5] (500 nM), 89.7%; in assay [6] (500 nM) it was 91.7%. The remaining activity at 0.5 µM in assay [7] (500 nM) worked out at 90.4%; in assay [8] (500 nM) it was 101%.
